{
  "source": "patent US6599905B2",
  "about": "“Pyrazine compounds” (SmithKline Beecham Corporation, priority 1997, dated 2003)",
  "data": [
    {"units": {"melting point": "°C"}, "values": [
      {"compound": "O=C(Nc1cnc(-c2cc(Cl)cc(Cl)c2Cl)c(NC(=O)C2CC2)n1)C1CC1", "note": "[Example 9, 2,6-Dicyclopropylcarbonylamino-3-(2,3,5-trichlorophenyl) pyrazine]", "melting point": "212 to 214"},
      {"compound": "Nc1nc(NC(=O)C2CC2)cnc1-c1cc(Cl)cc(Cl)c1Cl", "note": "[Example 9, 2-Amino-6-cyclopropylcarbonylamino-3-(2,3,5-trichlorophenyl)pyrazine]", "melting point": "240 to 244"},
      {"compound": "CC(C)C(=O)Nc1cnc(-c2cc(Cl)cc(Cl)c2Cl)c(NC(=O)C(C)C)n1", "note": "[Example 10, 2,6-Diisopropylcarbonylamino-3-(2,3,5-trichlorophenyl) pyrazine]", "melting point": "227 to 229"},
      {"compound": "N#Cc1nc(-c2cc(Cl)cc(Cl)c2Cl)c(N)nc1N", "note": "[Example 17, 5-Cyano-2,6-Diamino-3-(2,3,5-trichlorophenyl)pyrazine]", "melting point": "277 to 279"}
    ]}
  ]
}
